In patent US20250049939A1, “NOVEL FLT3 ANTIBODIES AND ANTIBODY-DRUG-CONJUGATES BASED THEREON, THERAPEUTIC METHODS AND USES THEREOF IN COMBINATION WITH TYROSINE KINASE INHIBITORS” (TUBULIS GmbH, priority 2021, published 2025):
Square brackets hold non-standard residues; d marks the D form. Peptide text beside a SMILES is read from it. Dolaproine = CO[C@@H]([C@@H]1CCCN1)[C@@H](C)C(=O)O; Dil = CC[C@H](C)[C@H](NC)[C@@H](CC(=O)O)OC; NMeV = CN[C@H](C(=O)O)C(C)C

How the values were obtained:
[1] = molecular target: T1, Ba/F3 cells expressing human wildtype FLT3 (Homo sapiens, UniProt P36888); test: Cytotoxicity in Ba/F3 hFLT3 wt, 72 h; details: Ba/F3 cells expressing the empty vector or human wild type FLT3
T1 sequence (P36888 27-993): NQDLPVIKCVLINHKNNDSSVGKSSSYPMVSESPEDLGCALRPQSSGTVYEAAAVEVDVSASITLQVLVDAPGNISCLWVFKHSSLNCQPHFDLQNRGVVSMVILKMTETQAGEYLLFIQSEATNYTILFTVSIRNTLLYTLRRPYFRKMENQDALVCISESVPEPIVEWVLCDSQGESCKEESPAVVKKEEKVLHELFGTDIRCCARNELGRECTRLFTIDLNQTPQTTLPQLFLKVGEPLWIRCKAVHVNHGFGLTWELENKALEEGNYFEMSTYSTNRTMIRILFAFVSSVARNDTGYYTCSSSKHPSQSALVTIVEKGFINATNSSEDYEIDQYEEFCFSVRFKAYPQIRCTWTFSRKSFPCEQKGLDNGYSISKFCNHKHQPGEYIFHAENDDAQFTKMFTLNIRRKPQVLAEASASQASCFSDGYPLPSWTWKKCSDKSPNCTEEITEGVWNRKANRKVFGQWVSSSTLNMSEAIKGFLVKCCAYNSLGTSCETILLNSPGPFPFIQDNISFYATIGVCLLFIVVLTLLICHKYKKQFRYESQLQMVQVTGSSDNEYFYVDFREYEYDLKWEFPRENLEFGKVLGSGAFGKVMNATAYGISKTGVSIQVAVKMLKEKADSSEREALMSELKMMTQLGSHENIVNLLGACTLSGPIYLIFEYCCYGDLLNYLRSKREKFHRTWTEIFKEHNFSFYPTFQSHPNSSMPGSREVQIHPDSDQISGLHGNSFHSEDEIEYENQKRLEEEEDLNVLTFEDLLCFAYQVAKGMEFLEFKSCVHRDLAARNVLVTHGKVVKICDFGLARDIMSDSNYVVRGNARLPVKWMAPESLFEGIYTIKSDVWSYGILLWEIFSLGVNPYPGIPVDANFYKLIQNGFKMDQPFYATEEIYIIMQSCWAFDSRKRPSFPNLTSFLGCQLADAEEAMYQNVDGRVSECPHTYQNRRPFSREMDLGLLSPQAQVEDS
Experimental: (§1) (A) Schematic process of P5 conjugation technology via disulfite bond reduction and Staudinger induced Michael addition. Final ADC consists of monoclonal antibody (20D9 or IgG1 antibody) coupled to monomethyl-auristatin F toxin. Figure was created with BioRender.com. (B-E,G) Assessment of cytotoxicity of ADCs in different Ba/F3 cell lines. Viability was determined after 72 h treatment with different concentrations by trypan blue exclusion count and compared to untreated control. Mean±s.d. of n=3 biological replicates. […] Calculation based on data from FIGS. 2E and 2G calculated by GraphPad Prism. Unpaired, two-tailed Student's t-test; *p<0.05. Each dot represents a replicate, horizontal line indicates mean.
(§2) AML cells were treated once (d0) and viability was determined after 96h using Resazurin solution (50 µM final concentration, 4 h incubation) (R12204, Thermo Fisher Scientific). For Ba/F3 cell assays, cells were treated once (d0) and viable cells were counted after 72 h on Vi-Cell Cell Viability Analyzer (Beckman Coulter, Krefeld, Germany). Calculation of IC50 values were performed using GraphPad Prism version 6.07 (GraphPad Software, La Jolla, CA, USA).

[2] = test system: FLT3 cell surface expression in MOLM-13 cells; test: FLT3 cell surface expression in MOLM-13 after kinase inhibitors, flow cytometry; assay type: cell-based, human; details: 6, 24, 48 and 72 h incubation
Experimental: Cells were analyzed in flow cytometry after treatment. Dotted line represents MFI ratio of untreated cells. Mean±s.d. of n=2 is depicted. […] Grey triangles indicate increasing drug concentrations. […] Mean±standard deviation is depicted.

healthy CD34+ BM cells = details: 1 μg/ml
From the text: (§3) (D) Differentiation assessment after staining to differentiation markers. CMP: common myeloid GMP: progenitors; granulocyte-monocyte progenitors; MEP: megakaryocyte/erythroid progenitors; MLP: multilymphoid progenitors; MPP: multipotent progenitors; hematopoietic stem cells (HSC). (E) Assessment of clonogenic capacity of healthy CD34+ BM cells. […] After 14 days, colonies were counted. GEMM: granulocyte, erythrocyte, macrophage, megakaryocyte. GM: granulocyte, macrophage. M: macrophage. G: granulocyte. E: erythrocyte. BFU-E: burst-forming unit erythrocyte. CFU: colony forming unit. 2way ANOVA; *p<0.05; Mean±s.d. of n=5.

[3] = test system: Ba/F3 cells expressing both FLT3 and CD64; test: Cytotoxicity in Ba/F3-CD64-FLT3, 72 h; assay type: cell-based, human
Experimental: as §1, §2

[4] = test system: CD34 positive healthy bone marrow (BM) cells; test: Viability of healthy CD34+ bone marrow cells, Annexin V/PI, 4 days; details: 1000 ng/ml
From the text: (C) Percentage of living cells measured with Annexin V/PI staining and normalized to PBS.

[5] = test system: Ba/F3-pMIY-CD64 expressing cells; test: Cytotoxicity in Ba/F3-pMIY-CD64, 72 h; assay type: cell-based, human
Experimental: as §1, §2

[6] = test system: CD34 positive healthy bone marrow (BM) cells; test: Differentiation assessment of healthy CD34+ cells; details: 1 μg/ml
From the text: as §3

MOLM-13 xenograft = MOLM-13 xenograft in NSG mice, bioluminescence imaging; assay type: in vivo; details: 3 mg/kg; Q1W×2
MOLM-13 cells = test: Cytotoxicity in MOLM-13, 96 h resazurin; assay type: cell-based, human
From the text: (A) Correlation of MFI of CD64 cell surface expression and MFI of FLT3 cell surface expression of myeloid human cell lines measure in flow cytometry. Expression data presented in Supplementary FIGS. 4A and B. Black line indicates simple linear regression with error interval. r=Pearson correlation coefficient; r^2=Coefficient of determination; p=p value from two tailed test with confidence interval of 95%. MFI=mean fluorescence intensity. (B,C,E,F) Assessment of cytotoxicity of ADCs in different human cell lines. Viability was determined after 96h treatment with different concentrations of ADCs by resazurin fluorescence and normalized to untreated control. Dashed line indicates 100 ng/ml drug concentration. Mean±s.d. of n=3 biological replicates. […] Black line indicates simple linear regression with error interval. (E) Treatment of FLT3 positive human cell lines with IgG1-ADC.

CC[C@H](C)[C@@H]([C@@H](CC(=O)N1CCC[C@H]1[C@H](OC)[C@@H](C)C(=O)N[C@@H](Cc1ccccc1)C(=O)O)OC)N(C)C(=O)[C@@H](NC(=O)[C@@H](NC)C(C)C)C(C)C [MMAF, monomethyl auristatin F] (H-[NMeV]V[Dil][Dolaproine]F-OH)
Cytotoxicity of controls [1]: no difference in cytotoxicity

CNC(=O)c1cc(Oc2ccc(NC(=O)Nc3ccc(Cl)c(C(F)(F)F)c3)cc2)ccn1 [Sorafenib]
FLT3 cell surface expression [2]: increase of FLT3 cell surface expression

IgG1-ADC: MMAF conjugated to the IgG1 based antibody palivizumab; CD64 but no FLT3 binding
Clonogenic capacity (CFU) (healthy CD34+ BM cells): significantly reduced granulocytic, monocytic and granulocytic-macrophagic colony formation | IC50, Ba/F3 expressing both FLT3 and CD64 [3]: 0.0783 µg/mL | Cytotoxicity of controls [1]: no cytotoxicity | Cell viability of CD34+ cells [4]: significantly decreased cell viability | IC50, Ba/F3-pMIY-CD64 [5]: 31.8 ng/ml | Differentiation: cell populations of CD34+ cells [6]: significantly decreased MLPs, CMPs, and GMPs but to a lower extent compared to the 20D9 ADC | Anti tumor effect, native and deglycosylated ADCs (MOLM-13 xenograft): reduced compared to native 20D9-ADC

deglycosylated IgG1-ADC: IgG1-ADC with N-linked glycans removed
Activity on MOLM-13 cells (MOLM-13 cells): no activity | Anti tumor effect, native and deglycosylated ADCs (MOLM-13 xenograft): only a minimal effect compared to PBS control mice
